Assay [1] addresses T1, human mGlu5a receptor (Homo sapiens (Human), UniProt P41594). The assay can be described thus: Intracellular Ca2+ mobilization assay (mGlu5 PAM assay). The settings on record: for mGlu5 PAM EC50: HEK-293 cells, human mGlu5a, L-glutamate at EC20; for Activity profile: PAM = positive, NAM = negative allosteric modulator of mGlu5; for EC50 mGlu5 PAM assay: comparison table; for Efficacy: maximal response in % of maximal stimulatory effect of saturating L-glutamate. Type of assay: cell-based. As for the experimental part: A monoclonal HEK-293 cell line stably transfected with a cDNA encoding for the human mGlu5a receptor was generated; for the work with mGlu5 Positive Allosteric Modulators (PAMs), a cell line with low receptor expression levels and low constitutive receptor activity was selected to allow the differentiation of agonistic versus PAM activity. Cells were cultured according to standard protocols (Freshney, 2000) in Dulbecco's Modified Eagle Medium with high glucose supplemented with 1 mM glutamine, 10% (vol/vol) heat-inactivated bovine calf serum, Penicillin/Streptomycin, 50 μg/ml hygromycin and 15 μg/ml blasticidin (all cell culture reagents and antibiotics from Invitrogen, Basel, Switzerland).
About 24 hrs before an experiment, 5×10^4 cells/well were seeded in poly-D-lysine coated, black/clear-bottomed 96-well plates. The cells were loaded with 2.5 μM Fluo-4AM in loading buffer (1×HBSS, 20 mM HEPES) for 1 hr at 37° C. and washed five times with loading buffer. The cells were transferred into a Functional Drug Screening System 7000 (Hamamatsu, Paris, France), and 11 half logarithmic serial dilutions of test compound at 37° C. were added and the cells were incubated for 10-30 min. with on-line recording of fluorescence. Following this pre-incubation step, the agonist L-glutamate was added to the cells at a concentration corresponding to EC20 (typically around 80 μM) with on-line recording of fluorescence; in order to account for day-to-day variations in the responsiveness of cells, the EC20 of glutamate was determined immediately ahead of each experiment by recording of a full dose-response curve of glutamate.
Responses were measured as peak increase in fluorescence minus basal (i.e. fluorescence without addition of L-glutamate), normalized to the maximal stimulatory effect obtained with saturating concentrations of L-glutamate. Graphs were plotted with the % maximal stimulatory using XLfit, a curve fitting program that iteratively plots the data using Levenburg Marquardt algorithm. The single site competition analysis equation used was y=A+((B−A)/(1+((x/C)D))), where y is the % maximal stimulatory effect, A is the minimum y, B is the maximum y, C is the EC50, x is the log 10 of the concentration of the competing compound and D is the slope of the curve (the Hill Coefficient). From these curves the EC50 (concentration at which half maximal stimulation was achieved), the Hill coefficient as well as the maximal response in % of the maximal stimulatory effect obtained with saturating concentrations of L-glutamate were calculated.
A depression of the signal observed after addition of the EC20 concentration of L-glutamate was indicative of an inhibitory activity of the test compound.

The target in assay [2] is T1, human mGlu5a receptor. The assay can be described thus: MPEP binding assay ([3H]MPEP displacement). The settings on record: for EC50: [3H]MPEP 2 nM, EBNA cell membranes, 1 h at 4° C., read-out: mGlu5-MPEP binding EC50; for Ki: comparison table. The method, then:
For binding experiments, cDNA encoding human mGlu 5a receptor was transiently transfected into EBNA cells using a procedure described by Schlaeger and Christensen [Cytotechnology 15:1-13 (1998)]. Cell membrane homogenates were stored at −80° C. until the day of assay where upon they were thawed and resuspended and polytronised in 15 mM Tris-HCl, 120 mM NaCl, 100 mM KCl, 25 mM CaCl2, 25 mM MgCl2 binding buffer at pH 7.4 to a final assay concentration of 20 μg protein/well.
Saturation isotherms were determined by addition of twelve [^3H]MPEP concentrations (0.04-100 nM) to these membranes (in a total volume of 200 μl) for 1 h at 4° C. Competition experiments were performed with a fixed concentration of [^3H]MPEP (2 nM) and IC50 values of test compounds evaluated using 11 concentrations (0.3-10,000 nM). Incubations were performed for 1 h at 4° C.
At the end of the incubation, membranes were filtered onto unifilter (96-well white microplate with bonded GF/C filter preincubated 1 h in 0.1% PEI in wash buffer, Packard BioScience, Meriden, Conn.) with a Filtermate 96 harvester (Packard BioScience) and washed 3 times with cold 50 mM Tris-HCl, pH 7.4 buffer. Nonspecific binding was measured in the presence of 10 μM MPEP. The radioactivity on the filter was counted (3 min) on a Packard Top-count microplate scintillation counter with quenching correction after addition of 45 μl of microscint 40 (Canberra Packard S. A., Zürich, Switzerland) and shaking for 20 min.

Six molecules from patent US9359301B2, “Ethynyl derivatives” (Hoffmann-La Roche Inc., priority 2012, dated 2016) can be followed below.

One may read the EC50 as the concentration at which the effect is half-maximal. What is called Ki is the equilibrium dissociation constant of an inhibitor or competing ligand from its target.

T1 sequence (P41594 other isoform, or with tags, fused parts or gaps): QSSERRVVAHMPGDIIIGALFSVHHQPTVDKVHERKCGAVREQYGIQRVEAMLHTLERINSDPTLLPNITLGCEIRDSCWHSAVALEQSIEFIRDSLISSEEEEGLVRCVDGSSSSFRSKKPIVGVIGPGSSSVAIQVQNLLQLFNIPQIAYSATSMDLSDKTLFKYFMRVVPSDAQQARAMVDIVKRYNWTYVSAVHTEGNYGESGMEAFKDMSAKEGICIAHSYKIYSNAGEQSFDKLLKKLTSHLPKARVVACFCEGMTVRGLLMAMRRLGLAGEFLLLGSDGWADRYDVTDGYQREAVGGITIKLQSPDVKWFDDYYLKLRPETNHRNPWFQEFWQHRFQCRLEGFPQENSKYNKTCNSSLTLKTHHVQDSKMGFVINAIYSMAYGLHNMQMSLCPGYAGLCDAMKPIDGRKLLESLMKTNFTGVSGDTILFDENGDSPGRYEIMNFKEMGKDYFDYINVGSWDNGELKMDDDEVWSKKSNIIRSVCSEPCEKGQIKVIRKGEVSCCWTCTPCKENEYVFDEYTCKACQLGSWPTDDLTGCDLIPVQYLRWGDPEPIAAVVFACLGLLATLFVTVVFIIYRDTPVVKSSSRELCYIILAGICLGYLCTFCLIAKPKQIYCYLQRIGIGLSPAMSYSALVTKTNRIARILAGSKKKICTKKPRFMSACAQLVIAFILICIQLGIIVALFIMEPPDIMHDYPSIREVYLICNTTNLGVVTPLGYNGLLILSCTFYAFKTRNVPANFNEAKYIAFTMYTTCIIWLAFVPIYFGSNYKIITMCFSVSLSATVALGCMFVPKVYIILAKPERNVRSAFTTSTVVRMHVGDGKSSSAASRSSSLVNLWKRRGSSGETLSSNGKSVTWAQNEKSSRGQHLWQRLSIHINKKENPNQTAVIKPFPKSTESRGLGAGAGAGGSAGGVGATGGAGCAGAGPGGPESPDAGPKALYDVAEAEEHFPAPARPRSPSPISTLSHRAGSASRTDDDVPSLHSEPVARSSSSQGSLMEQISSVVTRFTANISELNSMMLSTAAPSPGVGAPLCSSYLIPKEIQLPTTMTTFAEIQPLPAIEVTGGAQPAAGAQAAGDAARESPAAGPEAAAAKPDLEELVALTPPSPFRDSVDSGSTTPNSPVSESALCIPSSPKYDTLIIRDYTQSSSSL

On to `CCN(C(=O)c1ccc(C#Cc2cccc(Cl)c2)cn1)C(C)(C)C` [Example 2, 5-(3-Chloro-phenylethynyl)-pyridine-2-carboxylic acid tert-butyl-ethyl-amide], for which, on human mGlu5a receptor [1], the “mGlu5 PAM EC50” value is “in- active”, the Activity profile result was “NAM” and the “EC50 mGlu5 PAM assay” value was “inactive”. At human mGlu5a receptor [2], the EC50 was determined as 24 nM and the Ki was determined as 24 nM.
As for `CCN(C(=O)c1ncc(C#Cc2cccc(F)c2)cn1)C(C)(C)C` [Example 3, 5-(3-Fluoro-phenylethynyl)-pyrimidine-2-carboxylic acid tert-butyl-ethyl-amide], on human mGlu5a receptor [1], the “mGlu5 PAM EC50” value is reported as “in- active”, the Activity profile result was “NAM” and the “EC50 mGlu5 PAM assay” value was “inactive”. Moreover, at human mGlu5a receptor [2], the EC50 was 94 nM and the Ki worked out at 94 nM.
Consider `CCN(C(=O)c1ncc(C#Cc2cccc(Cl)c2)cn1)C(C)(C)C` [Example 4, 5-(3-Chloro-phenylethynyl)-pyrimidine-2-carboxylic acid tert-butyl-ethyl-amide], for which, at human mGlu5a receptor [1], the “mGlu5 PAM EC50” value was “in- active”, the Activity profile result is “NAM” and the “EC50 mGlu5 PAM assay” value is “inactive”. Moreover, at human mGlu5a receptor [2], the concentration giving a half-maximal response (EC50) was 46 nM and the inhibition constant (Ki) stood at 46 nM.
In the case of `CN(C(=O)c1ncc(C#Cc2cccc(F)c2)cn1)C(C)(C)C` [Reference compound 2, reference compound], on human mGlu5a receptor [1], the Activity profile entry is listed as “PAM” and the Efficacy amounted to 55%. On human mGlu5a receptor [2], the concentration giving a half-maximal response (EC50) worked out at 51 nM and the Ki was found to be 51 nM.
In the case of `CN(C(=O)c1ccc(C#Cc2cccc(F)c2)cn1)C(C)(C)C` [Reference compound 1, reference compound], at human mGlu5a receptor [1], the Activity profile entry is “PAM” and the Efficacy worked out at 64%. The EC50 on human mGlu5a receptor [2] is 29 nM.
Turning to `CCN(C(=O)c1ccc(C#Cc2cccc(F)c2)cn1)C(C)(C)C` [Example 1, 5-(3-Fluoro-phenylethynyl)-pyridine-2-carboxylic acid tert-butyl-ethyl-amide], on human mGlu5a receptor [1], the “mGlu5 PAM EC50” value was “in- active”, the Activity profile entry is “NAM” and the “EC50 mGlu5 PAM assay” value is “inactive”. Moreover, on human mGlu5a receptor [2], the EC50 turned out to be 42 nM and the Ki came to 42 nM.
